Results published in patent publication US12370209B2, “Methods for the use of 5′-adenosine diphosphate ribose (ADPR)” (Invirsa, Inc., priority 2016, dated 2025).
Entries after “also recorded” stand apart in the source; their conditions may differ. Read-outs that look alike come from different tables or passages of the source. Blank lines part the entries; values can stand above or below the compound they belong to.

Columns and labels:
[1] = test system: tumor necrosis factor alpha (TNF-α) mediated cytotoxicity; conditions: in vitro, levels as low as; cited from earlier work
[2] = test system: adenovirus serotype 3; test: Adenovirus plaque inhibition assay in A549 cells (Example 1); type: cell-based, Adenovirus serotype 3 (Ad3)
[3] = test system: adenovirus serotype 3; test: Plaque inhibition of adenovirus serotype 3 by ADPR and lithium chloride (Example 2); type: cell-based, Adenovirus serotype 3 (Ad3)
[4] = test system: A549 cell monolayers; conditions: human
[5] = test system: AsPC1—human pancreatic adenocarcinoma; test: CellTiter-Glo cell viability assay, AsPC1; type: cell-based
[6] = test system: H1437—human, lung adenocarcinoma, non-small cell lung cancer; test: CellTiter-Glo cell viability assay, H1437; type: cell-based
[7] = test system: MV411—human, myelomonocytic leukemia; test: CellTiter-Glo cell viability assay, MV411; type: cell-based
[8] = test system: U87-MG—human, brain glioblastoma; test: CellTiter-Glo cell viability assay, U87-MG; type: cell-based
[9] = test system: A549 cell monolayers
[10] = test system: A549 cells; test: Thinning of the A549 monolayer in the plaque assay (Example 5); type: cell-based, human
Experimental: (§1) A549 cells were plated 7×10^4 cells per well in 6-well plates. After 18 hours, growth media was removed and 1 mL of each sample mixtures was added per well. After incubating for one hour at 37° C., approximately 50-75 plaque forming units Ad3 and separately Ad5 were added per well. Virus adsorbed to the cells for two hours and then media was aspirated from the monolayers and replaced with Virus Growth Media containing Sample A dilutions of 0, 0.5, 1.0, 2.0, and 4.0 mg/mL, and agarose.
Ad3 and Ad5 plaque size and number were reduced by Sample A at 4 mg/mL and 2 mg/mL. […] The thin monolayer made it hard to delineate plaques. Very few plaques were visible as compared to control. […] Mean plaque counts at Sample A concentrations were as follows: • Ad3: 4 mg/mL-29; 2 mg/mL-10; 1 mg/mL-44; 0.5 mg/mL-54; 0 mg/mL-55 • Ad5: 4 mg/mL-7; 2 mg/mL-7; 1 mg/mL-25; 0.5 mg/mL-53; 0 mg/mL-65 Conclusion

[11] = test system: A549 cell monolayers; test: Toxicity score on A549 cell monolayers (Example 1)
[12] = test system: A549 (human alveolar adenocarcinoma) cell culture; test: MTT incorporation in A549 cell culture (Example 8); type: cell-based; conditions: for Average MTT incorporation as measured by OD560: 48 hours
Experimental: ADPR, sodium Salt, (Sigma A0752), was tested in A549 (human alveolar adenocarcinoma) cell culture to determine its effect on replication. ADPR was evaluated at five concentrations by incubation for 48 hours with A549 cells (previously grown to a monolayer) at 37° C. After incubation, MTT (3-(4,5-dimethylthiaz ol-2-yl)-2,5-diphenyltetrazolium bromide) dye was added to each well and live cells were measured by blue dye incorporation.

[13] = test system: Adenovirus 3; test: Plaque inhibition by dilithium ADPR, Ad3 in A549 cells (Example 5); type: cell-based, Adenovirus 3 (Ad3); conditions: 4, 2, 1 and 0.5 mg/mL
Experimental: (§2) Dilithium ADPR, 150 mg powder, was stored in a glass vial (“Sample A”) at 4° C. in the dark until use. On the day of assay, Sample A was solubilized to 200 mg/ml in 750 μL water for irrigation, then further diluted to target concentrations. […] Solubilized Sample A was tested for plaque inhibitory properties against Adenovirus 3 and Adenovirus 5 (Ad3 & Ad5).
(§3) Solubilized Sample A was diluted to 4 mg/mL, 2 mg/mL, 1 mg/mL and 0.5 mg/mL in Virus Growth Media (DMEM, 2% Fetal Bovine Serum (FBS) and antibiotic, antimycotic).
as §1

[14] = test system: A549 cell monolayers; test: Toxicity score on A549 cell monolayers (Example 2)
[15] = test system: Adenovirus 5; test: Plaque inhibition by dilithium ADPR, Ad5 in A549 cells (Example 5); type: cell-based, Adenovirus 5 (Ad5); conditions: 4, 2, 1 and 0.5 mg/mL
Experimental: as §2, §3, §1

[16] = test system: Adenovirus serotype 5 (Ad5); test: Viral keratoconjunctivitis model, modified McDonald-Shadduck scoring (Example 6); type: in vivo, Oryctolagus cuniculus (New Zealand White rabbits)
Source text: • Species: Oryctolagus cuniculus • Strain: New Zealand White rabbits • Sex: Female • Age: Commensurate with weight • Weight: Approximately 2.5 to 3.0 kilograms at study start • Number: 8 (naïve) • Method of Identification: Ear tag and cage label • Minimum Acclimation: 5 days
• 1. Inoculum—Adenovirus serotype 5 (Ad5) • (a) Physicochemical Characteristics and Composition Description: Virus propagated in A549 cells in DMEM with 8% fetal bovine serum. Cells and supernatant harvested, sonicated, and clarified by low speed centrifugation. Infectious titer by TCID50: 5.0×109 plaque-forming-units (PFU) per mL. • (b) Storage Condition: frozen at −60 to −80° C. • 2. Test Article—Dilithium ADPR • (a) Molecular weight: approximately 571.18 • (b) Storage Condition: Refrigerated at 2-8° C. • 3. Control Vehicle • (a) Composition: 0.31% sodium chloride, 0.1% sodium tetraborate, 1% boric acid, 0.35% polyethylene glycol 300 (PEG-300) in deionized (DI) water • (b) Storage Condition: Refrigerated at 2° C.-8° C. • 4. Test/Control Article Preparation • (a) Ad5 was supplied in a single aliquot for both days of inoculation. Immediately prior to the first viral inoculation on Day −1, the virus was thawed and brought to room temperature. 0.05 mL (50 μL) of the 5.0×10^9 PFU Ad5/mL solution was diluted with 1.5 mL of Dulbecco's Modified Eagle Medium (DMEM) to create a 1.61×10^8 PFU Ad5/mL solution. After the first inoculation on Day −1, the remaining virus solution was stored refrigerated at 2-8° C. until the second inoculation on Day 0. Virus solution was not re-frozen. • (b) Vehicle: 55.8 mg sodium chloride, 18 mg of sodium tetraborate, 180 mg of boric acid, and 63 mg of PEG-300 were weighed out into a vial. 14 mL DI water was added, and vial contents were swirled, vortexed, and/or sonicated if needed until a clear solution is formed. The pH of the solution was tested using pH tester strips and adjusted to 7.0-7.2, if necessary, using sodium hydroxide (NaOH) or additional boric acid. The volume was then brought up to 18 mL with additional DI water to make a 0.31% sodium chloride, 0.1% sodium tetraborate, 1% boric acid, 0.35% PEG-300 solution. The vial contents were sterile filtered through a 0.2 or 0.22 μm filter. • (c) Dilithium ADPR—High Dose: 240 mg of dilithium ADPR was weighed out into a vial. 12 mg of sodium tetraborate, 120 mg of boric acid, and 42 mg of PEG-300 were weighed out into a separate vial. 7 mL DI water was added, and vial contents were swirled, vortexed, and/or sonicated if needed until a clear solution is formed. The solution was transferred to the vial containing dilithium ADPR. The volume was brought up to […] with DI water, and vial contents were swirled, vortexed, and/or sonicated if needed until a clear solution is formed. […]

[17] = AsPC1, 72 hours treatment, average of two values
[18] = H1437, 72 hours treatment, average of two values
[19] = MV411, 72 hours treatment, average of two values
[20] = U87-MG, 72 hours treatment, average of two values
[21] = 0.5%, 1% and 2% topical TID, Day 3 and Day 7 compared to baseline on Day 1, p<0.01

Compound: Nc1ncnc2c1ncn2[C@@H]1O[C@H](COP(=O)(O)OP(=O)(O)OC[C@H]2OC(O)[C@H](O)[C@@H]2O)[C@@H](O)[C@H]1O (some centres unmarked) [ADPR, 5′-adenosine diphosphate ribose]
ADPR level with measurable inhibition of TNF-α mediated cytotoxicity [1]: 5 mg/L

Compound: Nc1ccn(C[C@@H](CO)OCP(=O)(O)O)c(=O)n1 [Cidofovir]
Plaque Counts ([2]; 20 μM Cidofovir): 39 | Plaque appearance ([2]; 100 μM Cidofovir): pinpoint | Plaque size and number ([2]; cidofovir, as concentrations were increased (20, 100 μM)): decreased | Plaque appearance ([3]; 3 μM Cidofovir): small plaques | Plaque appearance ([3]; 33 μM Cidofovir): Pinpoint plaques

Compound: NC(=O)c1cccnc1 [Compound N, Nicotinamide]
Plaque appearance ([2]; 600 μg/ml nicotinamide alone): much larger | Plaque Counts ([2]; Compound N 6000 μg/ml, 0 μg/ml Compound A, Ad3, A549): Toxic | Toxicity Scores (T value) ([4]; 60 μg/ml): T = 0 | Toxicity Scores (T value) ([4]; 600 μg/ml): T = 2 | Toxicity Scores (T value) ([4]; 6000 μg/ml): T = 3

IC50 [5, 17]: 1.5 µM | IC50 [6, 18]: 0.2 µM | IC50 [7, 19]: 1.17 µM | IC50 [8, 20]: 1.2 µM
Compound: CCc1c2c(nc3ccc(O)cc13)-c1cc3c(c(=O)n1C2)COC(=O)[C@]3(O)CC [SN38]

Compound: [Cl-].[Li+] [Sample L, Lithium Chloride]
Toxicity Scores (T value) [9]: T = 0 | IC50 [5]: > 3000 µM | Plaque appearance [3]: much larger; also recorded: very large plaques | IC50 [6]: > 3000 µM | IC50 [7]: > 6000 µM | IC50 [8]: > 3000 µM

Compound: Adenosine 5′-diphosphoribose Sodium Salt [Compound A]
Monolayer compared to cell control wells ([10]; 1 mg/mL and 0.5 mg/mL): slight thinning | Monolayer compared to control wells ([10]; 4 and 2 mg/mL): moderate thinning | Toxicity Scores (T value) ([11]; Compound A 2000 μg/ml): T = 0 | Toxicity Scores (T value) ([11]; Compound A 6000 μg/ml): T = 0 | Average MTT incorporation as measured by OD560 ([12]; 1.5 mg/mL): 0.62±0.08 | Average MTT incorporation as measured by OD560 ([12]; 3 mg/mL): 0.61±0.09 | Average MTT incorporation as measured by OD560 ([12]; 6 mg/mL): 0.72±0.04 | Average MTT incorporation as measured by OD560 ([12]; 12 mg/mL): 0.69±0.01 | Average MTT incorporation as measured by OD560 ([12]; 24 mg/mL): 0.55±0.02 | Effect on MTT incorporation ([12]; at 24 mg/mL): mild reduction | Effect on MTT incorporation ([12]; up to 12 mg/mL (equal to 21 mM)): did not reduce | Plaque size as compared to control ([2]; Compound A at 2000 and 6000 μg/ml): reduced | Plaque size as compared to control ([3]; Sample A at 0.44, 1.33 and 4.0 mM): reduced | Plaque size and number [13]: reduced | Toxicity Scores (T value) ([14]; Sample A 0.44 mM): T = 0 | Toxicity Scores (T value) ([14]; Sample A 1.33 mM): T = 0 | Toxicity Scores (T value) ([14]; Sample A 4.0 mM): T = 0 | Plaque size and number [15]: reduced

Compound: Dilithium ADPR
IC50 [5, 17]: 570 µM | Composite modified McDonald-Shadduck score (total of all sub scores) [16, 21]: significantly improved; also recorded: significant improvement | Subscore conjunctival congestion [16, 21]: improvement that was statistically significant | Subscore surface area of corneal involvement ([16]; 0.5%, 1% and 2% topical TID, Day 3 and Day 7 compared to baseline on Day 1, p<0.05): improvement that was statistically significant | Reduction in the composite score ([16]; all doses (0.5%, 1.0% and 2.0%), by Day 7): > 80% | IC50 [6, 18]: 531 µM | IC50 [7, 19]: 323 µM | IC50 [8, 20]: 1560 µM
